# Measurements reported in patent publication US20220280543A1, “DDX17 AND NLRC4 TARGETING FOR INFLAMMATORY DISEASES” (University of Virginia Patent Foundation, priority 2019, published 2022).
# Entries after “also recorded” stand apart in the source; their conditions may differ.
# B1: human NLR family CARD domain containing 4 (NLRC4) (receptor)
# chain: MNFIKDNSRALIQRMGMTVIKQITDDLFVWNVLNREEVNIICCEKVEQDAARGIIHMILKKGSESCNLFLKSLKEWNYPLFQDLNGQSLFHQTSEGDLDDLAQDLKDLYHTPSFLNFYPLGEDIDIIFNLKSTFTEPVLWRKDQHHHRVEQLTLNGLLQALQSPCIIEGESGKGKSTLLQRIAMLWGSGKCKALTKFKFVFFLRLSRAQGGLFETLCDQLLDIPGTIRKQTFMAMLLKLRQRVLFLLDGYNEFKPQNCPEIEALIKENHRFKNMVIVTTTTECLRHIRQFGALTAEVGDMTEDSAQALIREVLIKELAEGLLLQIQKSRCLRNLMKTPLFVVITCAIQMGESEFHSHTQTTLFHTFYDLLIQKNKHKHKGVAASDFIRSLDHCGDLALEGVFSHKFDFELQDVSSVNEDVLLTTGLLCKYTAQRFKPKYKFFHKSFQEYTAGRRLSSLLTSHEPEEVTKGNGYLQKMVSISDITSTYSSLLRYTCGSSVEATRAVMKHLAAVYQHGCLLGLSIAKRPLWRQESLQSVKNTTEQEILKAININSFVECGIHLYQESTSKSALSQEFEAFFQGKSLYINSGNIPDYLFDFFEHLPNCASALDFIKLDFYGGAMASWEKAAEDTGGIHMEEAPETYIPSRAVSLFFNWKQEFRTLEVTLRDFSKLNKQDIRYLGKIFSSATSLRLQIKRCAGVAGSLSLVLSTCKNIYSLMVEASPLTIEDERHITSVTNLKTLSIHDLQNQRLPGGLTDSLGNLKNLTKLIMDNIKMNEEDAIKLAEGLKNLKKMCLFHLTHLSDIGEGMDYIVKSLSSEPCDLEEIQLVSCCLSANAVKILAQNLHNLVKLSILDLSENYLEKDGNEALHELIDRMNVLEQLTALMLPWGCDVQGSLSSLLKHLEEVPQLVKLGLKNWRLTDTEIRILGAFFGKNPLKNFQQLNLAGNRVSSDGWLAFMGVFENLKQLVFFDFSTKEFLPDPALVRKLSQVLSKLTFLQEARLVGWQFDDDDLSVITGAFKLVTA
# notes: Endogenous protein of human RPE cells and of human donor eyes
# Legend:
# [1] = system: NLRC4 phosphorylation (site S533); assay: Alu RNA induced NLRC4 phosphorylation (S533) in BMDM pre-treated with kinase inhibitors, immunoblot; format: cell-based, mouse; conditions: BMDM pre-treated 1 hour with inhibitor at 2 μM or 5 μM, then Alu RNA transfection (100 pmol)
# Description: (§1) FIG. 2. SINE RNA induced NLRC4 phosphorylation (site S533) through protein Kinase C Delta. BMDM cell pre-treated with the LRRK2 Kinase inhibitor gsk2578215a (GSK; 5-(2-Fluoro-4-pyridinyl)-2-(phenylmethoxy)-N-3-pyridinyl-benzamide; CAS Number 1285515-21-0; Sigma-Aldrich, St. Louis, Mo., United States of America) or the PKC delta inhibitor Rottlerin (CAS Number 82-08-6; Sigma-Aldrich) at 2 μM or 5 μM, and treated with Alu RNA (SEQ ID NO: 86) transfection or transfection reagent alone (Mock). NLRC4 phosphorylation (P-NLRC4) and supernatant caspase-1 activation were detected by SDS-PAGE. […] PKC delta inhibitor, Rottlerin blocked Alu RNA-induced NLRC4 phosphorylation and caspase-1 activation. The p-NLRC4 and caspase-1 (p20) bands were indicated with black arrows.
# (§2) Previous studies have shown that NLRC4 inflammasome activation in response to Salmonella exposure requires two steps for its activation, phosphorylation on Ser533 residue of NLRC4 and NAIP mediated oligomerization of NLRC4. […] Moreover, treatment with SINE RNAs induced caspase-1 p20 cleavage, indicative of inflammasome activation (FIG. 2). For the subsequent experiments in this study, we used Alu RNA (SEQ ID NO: 86) as the stimulus to activate the NLRC4 inflammasome. To date, two kinases are reported to phosphorylate NLRC4 at S533: protein kinase C delta (PKCδ) and leucine rich repeat-containing kinase-2 (LRRK2). […]
# caspase-1 = assay: Alu RNA induced caspase-1 activation (p20 in supernatant) in BMDM pre-treated with kinase inhibitors; format: cell-based, mouse; conditions: BMDM pre-treated 1 hour with inhibitor at 2 μM or 5 μM, then Alu RNA transfection (100 pmol)
# Description: as §1, §2
# [2] = target: the molecule itself; assay: homo-oligomerization, Tris-glycine native PAGE, Alu RNA-transfected human RPE cells
# Source text: FIGS. 24A and 24B. Alu RNA (SEQ ID NO: 86) induced NLRC4 activation in human RPE cells. To test whether Alu RNA (SEQ ID NO: 86) induces NLRC4 activation in human RPE, we transfected human RPE with Alu RNA (SEQ ID NO: 86 at 100 pmol). FIG. 24A. Immunofluorescence staining on NLRC4 show Alu RNA (SEQ ID NO: 86) induced cytosolic NLRC4 punctate in hRPE cells. The NLRC4 aggregates induced by Alu RNA (SEQ ID NO: 86) are indicated by white arrows. FIG. 24B. Alu RNA (SEQ ID NO: 86) induced NLRC4 (p-NLRC4) phosphorylation and oligomerization. Loading control show by Actin. NLRC4 oligomers were detected by Tris-glycine native PAGE. […] The band of NLRC4 oligomers is indicated by black arrow.
# [3] = target: T1, human NLR family pyrin domain containing 3 (NLRP3) (human, UniProt Q96P20 1-1036); assay: proximity ligation assay (PLA) in human RPE cells transfected with biotinylated Alu RNA
# T1 construct: Endogenous protein of human RPE cells
# Description: FIG. 37. Alu RNA (SEQ ID NO: 86) induces the assembly of NLRC4 and NLRP3 complex. Human RPE cells were transfected with biotinylated Alu RNA (SEQ ID NO: 86 at 100 pmol) by LIPOFECTAMINE™ 3000 brand transfection reagent (Lipo; ThermoFisher Scientific). The assembly of NLRC4 and NLRP3 complex was evaluated by Proximity Ligation Assay (PLA). […] The signal of NLRC4-NLRP3 complexes is indicated by the white arrow.
# Human RPE cells were treated with biotinylated Alu RNA (SEQ ID NO: 86 at 100 pmol). The assembly of NLRC4 and NLRP3 complex was evaluated by Proximity Ligation Assay (PLA).
# T1 sequence (Q96P20 whole entry, the tested form may be a part): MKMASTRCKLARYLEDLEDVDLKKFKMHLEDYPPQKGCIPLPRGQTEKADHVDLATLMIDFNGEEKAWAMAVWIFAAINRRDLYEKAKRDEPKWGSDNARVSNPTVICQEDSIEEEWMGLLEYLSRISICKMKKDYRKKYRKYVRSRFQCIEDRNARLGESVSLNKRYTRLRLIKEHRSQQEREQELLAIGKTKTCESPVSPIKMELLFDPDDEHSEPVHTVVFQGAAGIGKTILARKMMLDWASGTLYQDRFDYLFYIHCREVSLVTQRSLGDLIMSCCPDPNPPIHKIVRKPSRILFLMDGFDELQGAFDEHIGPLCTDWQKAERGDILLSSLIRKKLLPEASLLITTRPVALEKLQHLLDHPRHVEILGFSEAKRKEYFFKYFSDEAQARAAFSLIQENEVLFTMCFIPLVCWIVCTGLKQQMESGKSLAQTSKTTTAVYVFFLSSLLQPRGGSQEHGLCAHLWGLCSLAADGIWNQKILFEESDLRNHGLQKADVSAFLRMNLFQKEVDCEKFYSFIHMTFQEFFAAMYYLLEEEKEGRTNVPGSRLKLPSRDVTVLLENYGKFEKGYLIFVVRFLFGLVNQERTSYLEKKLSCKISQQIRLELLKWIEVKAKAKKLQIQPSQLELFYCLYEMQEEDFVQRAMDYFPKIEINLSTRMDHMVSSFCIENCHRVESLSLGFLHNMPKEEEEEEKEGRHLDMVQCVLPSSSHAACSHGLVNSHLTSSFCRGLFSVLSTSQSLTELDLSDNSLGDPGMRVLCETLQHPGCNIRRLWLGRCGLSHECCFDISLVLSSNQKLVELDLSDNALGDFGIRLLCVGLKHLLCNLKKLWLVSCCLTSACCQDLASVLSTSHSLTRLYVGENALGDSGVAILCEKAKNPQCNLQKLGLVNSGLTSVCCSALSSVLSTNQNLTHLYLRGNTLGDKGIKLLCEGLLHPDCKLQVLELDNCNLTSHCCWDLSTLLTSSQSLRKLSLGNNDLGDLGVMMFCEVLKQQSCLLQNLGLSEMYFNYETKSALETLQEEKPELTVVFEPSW
Molecule,Alu RNA induced phosphorylation of NLRC4 [1],Alu RNA induced caspase-1 activation (caspase-1),binding result [2],binding result [3]
CC(=O)c1c(O)c(C)c(O)c(Cc2c(O)c3c(c(C(=O)/C=C/c4ccccc4)c2O)OC(C)(C)C=C3)c1O [Rottlerin],blocked; also recorded: inhibited,blocked; also recorded: inhibited,,
B1,,,binds,binds
